{"source": "patent US20200010482A1", "about": "“INHIBITORS OF BETA SECRETASE” (Janssen Pharmaceutica NV, priority 2017, published 2020)", "system": "brain levels of soluble Aβ42, Aβ40, Aβ38, and Aβ37", "assay": "In vivo Aβ lowering, brain levels of soluble Aβ by MSD electrochemiluminescence", "set-up": "species or system mouse", "details": "10 mg/kg s.c., 4 h after administration; untreated animals as control set at 100", "text": "To determine whether acute administration of an Aβ lowering agent would reduce Aβ levels in vivo, non-transgenic rodents, e.g. mice or rats were used. Animals treated with the Aβ lowering agent were examined and compared to those untreated or treated with vehicle and brain levels of soluble Aβ42, Aβ40, Aβ38, and Aβ37 were quantitated by Meso Scale Discovery's (MSD) electrochemiluminescence detection technology. Treatment periods varied from hours (h) to days and were adjusted based on the results of the Aβ lowering once a time course of onset of effect could be established.\nA typical protocol for measuring Aβ lowering in vivo is shown but it is only one of many variations that could be used to optimize the levels of detectable Aβ. […] After 4 h, the animals were sacrificed and Aβ levels were analysed.\nBlood was collected by decapitation and exsanguinations in EDTA-treated collection tubes. […] The left hemisphere was stored at −18° C. for quantitative analysis of test compound levels. […]\nMouse brains from non-transgenic animals were resuspended in 8 volumes of 0.4% DEA (diethylamine)/50 mM NaCl containing protease inhibitors (Roche-11873580001 or 04693159001) per gram of tissue, e.g. for 0.158 g brain, add 1.264 ml of 0.4% DEA. […] Nine parts of supernatant were neutralized with 1 part 0.5 M Tris-HCl pH 6.8 and used to quantify Aβ. […]", "data": [{"compound": "COc1ncc(C#N)c2c1C[C@]1(c3ccccc3F)N=C(N)SC[C@@H]1C2", "note": "(racemic) [Compound 22]", "values": [{"measurement": "Aβ40 (% vs Ctrl)_Mean", "result": 39, "unit": "% vs Ctrl"}, {"measurement": "Aβ42 (% vs Ctrl)_Mean", "result": 32, "unit": "% vs Ctrl"}]}]}
